Among the data in patent US10543212B2, “Substituted amines for treating cardiac diseases” (Cardurion Pharmaceuticals, LLC, priority 2017, dated 2020) are IC50 values, retold here.

Some results are limits rather than exact numbers.

T1 sequence (Q13557 1-478 isoform Q13557-12): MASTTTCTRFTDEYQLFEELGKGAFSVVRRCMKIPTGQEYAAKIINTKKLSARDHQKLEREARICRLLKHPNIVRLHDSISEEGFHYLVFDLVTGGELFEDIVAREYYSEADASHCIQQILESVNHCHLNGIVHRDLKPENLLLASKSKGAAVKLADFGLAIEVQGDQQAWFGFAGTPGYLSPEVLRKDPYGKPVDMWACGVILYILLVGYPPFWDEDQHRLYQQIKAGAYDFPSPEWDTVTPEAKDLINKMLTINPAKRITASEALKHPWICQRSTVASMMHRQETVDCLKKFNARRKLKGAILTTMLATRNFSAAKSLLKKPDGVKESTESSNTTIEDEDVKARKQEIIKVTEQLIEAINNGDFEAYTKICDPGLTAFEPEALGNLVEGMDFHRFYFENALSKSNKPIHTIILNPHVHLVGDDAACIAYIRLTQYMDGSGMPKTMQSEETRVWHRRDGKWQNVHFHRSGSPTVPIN

The experiment concerns the target T1, Full-length, GST-tagged, human CaMKIIδ (Homo sapiens, UniProt Q13557).
T1 construct: Full-Length, Glutathione-S-Transferase(GST)-Tagged, Human CaMKIIδ was purchased from Carna Biosciences; purchased Carna Biosciences 02-111
Put plainly: CaMKIIδ binding assay (TR-FRET with BODIPY-labeled probe ligand). The note with it: Table 2; activity class for CaMKIIδ. The essentials: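 Compounds were tested as 4-fold, eight-point series for 1 hr at room temperature, and IC50 was obtained by logistic fitting against a 3 μM parent-compound control. Signal came from displacement of a 300 nM BODIPY ligand from 0.5 nM GST-CaMKIIδ, detected via Tb-anti-GST in calmodulin/Ca2+ (pH 7.6).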
For `C[C@@H](Cn1cnnn1)Oc1cc(-c2cnc(Nc3cn(C4CCCN(C5COC5)C4)nc3C(F)(F)F)nc2)ccc1Cl` (stereo partly drawn) [Example 601, 5-(3-(((S)-1-(1H-tetrazol-1-yl)propan-2-yl)oxy)-4-chlorophenyl)-N-(1-(1-(oxetan-3-yl)piperidin-3-yl)-3-(trifluoromethyl)-1H-pyrazol-4-yl)pyrimidin-2-amine], the IC50 was in the range of 0.01 to 0.1 µM.

Regarding `C[C@@H](Cn1cnnn1)Oc1cc(-c2cnc(Nc3cn(CC4CCCN4)nc3C(F)(F)F)nc2)ccc1Cl` (stereo partly drawn) [Example 602, 5-(3-(((S)-1-(1H-tetrazol-1-yl)propan-2-yl)oxy)-4-chlorophenyl)-N-(1-(pyrrolidin-2-ylmethyl)-3-(trifluoromethyl)-1H-pyrazol-4-yl)pyrimidin-2-amine], the concentration for half-maximal inhibition (IC50) was less than 0.01 µM. For `CCOC(=O)C1CCC(n2cc(Nc3ncc(-c4ccc(Cl)c(O[C@@H](C)Cn5cnnn5)c4)cn3)c(C(F)(F)F)n2)CC1` (stereo partly drawn) [Example 603, ethyl (S)-4-(4-((5-(3-((1-(1H-tetrazol-1-yl)propan-2-yl)oxy)-4-chlorophenyl)pyrimidin-2-yl)amino)-3-(trifluoromethyl)-1H-pyrazol-1-yl)cyclohexane-1-carboxylate] the value was 0.01 to 0.1 µM. As for `C[C@@H](Cn1cnnn1)Oc1cc(-c2cnc(Nc3cn(C4CCC(C(=O)O)CC4)nc3C(F)(F)F)nc2)ccc1Cl` (stereo partly drawn) [Example 604, (S)-4-(4-((5-(3-((1-(1H-tetrazol-1-yl)propan-2-yl)oxy)-4-chlorophenyl)pyrimidin-2-yl)amino)-3-(trifluoromethyl)-1H-pyrazol-1-yl)cyclohexane-1-carboxylic acid], the half-maximal inhibitory concentration (IC50) lay in the range of 0.01 to 0.1 µM.

Regarding `Cc1ncc(N2CC(N3CCOCC3)C2)cc1Nc1ncc(-c2ccc(Cl)c(O[C@@H](C)Cn3cnnn3)c2)cn1` [Example 605, (S)-5-(3-((1-(1H-tetrazol-1-yl)propan-2-yl)oxy)-4-chlorophenyl)-N-(2-methyl-5-(3-morpholinoazetidin-1-yl)pyridin-3-yl)pyrimidin-2-amine], the half-inhibitory concentration (IC50) was 0.01 to 0.1 µM. Take `CCN(CC)C(=O)Cn1cc(Nc2ncc(-c3ccc(Cl)c(O[C@@H](C)Cn4cnnn4)c3)cn2)c(C(F)(F)F)n1` [Example 606, (S)-2-(4-((5-(3-((1-(1H-tetrazol-1-yl)propan-2-yl)oxy)-4-chlorophenyl)pyrimidin-2-yl)amino)-3-(trifluoromethyl)-1H-pyrazol-1-yl)-N,N-diethylacetamide]: the IC50 lay within 0.01 to 0.1 µM. For the molecule `C[C@@H](Cn1cnnn1)Oc1cc(-c2cnc(Nc3cn(CC(=O)N4CCOCC4)nc3C(F)(F)F)nc2)ccc1Cl` [Example 607, (S)-2-(4-((5-(3-((1-(1H-tetrazol-1-yl)propan-2-yl)oxy)-4-chlorophenyl)pyrimidin-2-yl)amino)-3-(trifluoromethyl)-1H-pyrazol-1-yl)-1-morpholinoethan-1-one], the concentration for half-maximal inhibition (IC50) is less than 0.01 µM. The same measure for `CCC(C)n1cc(Nc2ncc(-c3ccc(Cl)c(O[C@@H](C)Cn4cnnn4)c3)cn2)c(C(F)(F)F)n1` (stereo partly drawn) [Example 608, 5-(3-(((S)-1-(1H-tetrazol-1-yl)propan-2-yl)oxy)-4-chlorophenyl)-N-(1-(sec-butyl)-3-(trifluoromethyl)-1H-pyrazol-4-yl)pyrimidin-2-amine]: 0.01 to 0.1 µM; for `C[C@@H](Cn1cnnn1)Oc1cc(-c2cnc(Nc3cn(CC4CCCN4C4COC4)nc3C(F)(F)F)nc2)ccc1Cl` (stereo partly drawn) [Example 609, 5-(3-(((S)-1-(1H-tetrazol-1-yl)propan-2-yl)oxy)-4-chlorophenyl)-N-(1-((1-(oxetan-3-yl)pyrrolidin-2-yl)methyl)-3-(trifluoromethyl)-1H-pyrazol-4-yl)pyrimidin-2-amine]: 0.01 to 0.1 µM; for `Cc1ncc(N2CC(CN3CCOCC3)C2)cc1Nc1ncc(-c2ccc(Cl)c(O[C@@H](C)Cn3cnnn3)c2)cn1` [Example 610, (S)-5-(3-((1-(1H-tetrazol-1-yl)propan-2-yl)oxy)-4-chlorophenyl)-N-(2-methyl-5-(3-(morpholinomethyl)azetidin-1-yl)pyridin-3-yl)pyrimidin-2-amine]: less than 0.01 µM. Take `C[C@@H](Cn1cnnn1)Oc1cc(-c2cnc(Nc3cn(CC4CCCN4C4CCOCC4)nc3C(F)(F)F)nc2)ccc1Cl` (stereo partly drawn) [Example 611, 5-(3-(((S)-1-(1H-tetrazol-1-yl)propan-2-yl)oxy)-4-chlorophenyl)-N-(1-((1-(tetrahydro-2H-pyran-4-yl)pyrrolidin-2-yl)methyl)-3-(trifluoromethyl)-1H-pyrazol-4-yl)pyrimidin-2-amine]: the concentration for half-maximal inhibition (IC50) is less than 0.01 µM. In the case of `COc1ccc(N2C[C@@H](C)N[C@@H](C)C2)cc1Nc1ncc(-c2ccc(Cl)c(O[C@@H](C)Cn3cnnn3)c2)cn1` [Example 612, 5-(3-(((S)-1-(1H-tetrazol-1-yl)propan-2-yl)oxy)-4-chlorophenyl)-N-(5-(cis-3,5-dimethylpiperazin-1-yl)-2-methoxyphenyl)pyrimidin-2-amine], the half-maximal inhibitory concentration (IC50) is less than 0.01 µM.

`COc1nc(N2CCN(C(=O)OC(C)(C)C)CC2)ccc1Nc1ncc(-c2ccc(Cl)c(O[C@@H](C)Cn3cnnn3)c2)cn1` [Example 613, tert-butyl (S)-4-(5-((5-(3-((1-(1H-tetrazol-1-yl)propan-2-yl)oxy)-4-chlorophenyl)pyrimidin-2-yl)amino)-6-methoxypyridin-2-yl)piperazine-1-carboxylate] registered an IC50 not below 0.1 µM. `COc1nc(N2CCNCC2)ccc1Nc1ncc(-c2ccc(Cl)c(O[C@@H](C)Cn3cnnn3)c2)cn1` [Example 614, (S)-5-(3-((1-(1H-tetrazol-1-yl)propan-2-yl)oxy)-4-chlorophenyl)-N-(2-methoxy-6-(piperazin-1-yl)pyridin-3-yl)pyrimidin-2-amine] showed a half-inhibitory concentration (IC50) of less than 0.01 µM.

Molecule `COc1cc(N2CCOC(CN(C)C)C2)ccc1Nc1ncc(-c2ccc(Cl)c(O[C@@H](C)Cn3cnnn3)c2)cn1` (stereo partly drawn) [Example 615, 5-(3-(((S)-1-(1H-tetrazol-1-yl)propan-2-yl)oxy)-4-chlorophenyl)-N-(4-(2-((dimethylamino)methyl)morpholino)-2-methoxyphenyl)pyrimidin-2-amine] returned a concentration for half-maximal inhibition (IC50) of less than 0.01 µM. `COc1nc(N2CCN(C3CCOCC3)CC2)ccc1Nc1ncc(-c2ccc(Cl)c(O[C@@H](C)Cn3cnnn3)c2)cn1` [Example 616, (S)-5-(3-((1-(1H-tetrazol-1-yl)propan-2-yl)oxy)-4-chlorophenyl)-N-(2-methoxy-6-(4-(tetrahydro-2H-pyran-4-yl)piperazin-1-yl)pyridin-3-yl)pyrimidin-2-amine] came in with an IC50 of less than 0.01 µM.

With `C[C@@H](Cn1cnnn1)Oc1cc(-c2cnc(Nc3cn(CC(=O)Nc4ccccc4)nc3C(F)(F)F)nc2)ccc1Cl` [Example 617, (S)-2-(4-((5-(3-((1-(1H-tetrazol-1-yl)propan-2-yl)oxy)-4-chlorophenyl)pyrimidin-2-yl)amino)-3-(trifluoromethyl)-1H-pyrazol-1-yl)-N-phenylacetamide], the half-inhibitory concentration (IC50) fell in the range of 0.01 to 0.1 µM. As for `C[C@@H](Cn1cnnn1)Oc1cc(-c2cnc(Nc3cn(C4CCNC4)nc3C(F)(F)F)nc2)ccc1Cl` (stereo partly drawn) [Example 618, 5-(3-(((S)-1-(1H-tetrazol-1-yl)propan-2-yl)oxy)-4-chlorophenyl)-N-(1-(pyrrolidin-3-yl)-3-(trifluoromethyl)-1H-pyrazol-4-yl)pyrimidin-2-amine], the half-inhibitory concentration (IC50) is less than 0.01 µM. Molecule `C[C@@H](Cn1cnnn1)Oc1cc(-c2cnc(Nc3cn(C4CCN(C5COC5)C4)nc3C(F)(F)F)nc2)ccc1Cl` (stereo partly drawn) [Example 619, 5-(3-(((S)-1-(1H-tetrazol-1-yl)propan-2-yl)oxy)-4-chlorophenyl)-N-(1-(1-(oxetan-3-yl)pyrrolidin-3-yl)-3-(trifluoromethyl)-1H-pyrazol-4-yl)pyrimidin-2-amine] returned an IC50 of 0.01 to 0.1 µM. `C[C@@H](Cn1cnnn1)Oc1cc(-c2cnc(Nc3cn(CCOCCO)nc3C(F)(F)F)nc2)ccc1Cl` [Example 620, (S)-2-(2-(4-((5-(3-((1-(1H-tetrazol-1-yl)propan-2-yl)oxy)-4-chlorophenyl)pyrimidin-2-yl)amino)-3-(trifluoromethyl)-1H-pyrazol-1-yl)ethoxy)ethan-1-ol] returned an IC50 of 0.01 to 0.1 µM. The molecule `COc1cc(N2CCNCC2)cnc1Nc1ncc(-c2ccc(Cl)c(O[C@@H](C)Cn3cnnn3)c2)cn1` [Example 621, (S)-5-(3-((1-(1H-tetrazol-1-yl)propan-2-yl)oxy)-4-chlorophenyl)-N-(3-methoxy-5-(piperazin-1-yl)pyridin-2-yl)pyrimidin-2-amine] displayed a half-inhibitory concentration (IC50) of 0.01 to 0.1 µM.

Molecule `COc1cc(N2CCNCC2)ncc1Nc1ncc(-c2ccc(Cl)c(O[C@@H](C)Cn3cnnn3)c2)cn1` [Example 622, (S)-5-(3-((1-(1H-tetrazol-1-yl)propan-2-yl)oxy)-4-chlorophenyl)-N-(4-methoxy-6-(piperazin-1-yl)pyridin-3-yl)pyrimidin-2-amine] gave an IC50 of less than 0.01 µM. Consider `CC(C)c1nn(C2CCN(C3CCOCC3)CC2)cc1Nc1ncc(-c2ccc(Cl)c(O[C@@H](C)Cn3cnnn3)c2)cn1` [Example 623, (S)-5-(3-((1-(1H-tetrazol-1-yl)propan-2-yl)oxy)-4-chlorophenyl)-N-(3-isopropyl-1-(1-(tetrahydro-2H-pyran-4-yl)piperidin-4-yl)-1H-pyrazol-4-yl)pyrimidin-2-amine], for which the IC50 is less than 0.01 µM. For `CCn1cc(Nc2ncc(-c3ccc(Cl)c(O[C@@H](C)Cn4cnnn4)c3)cn2)c(N2CCOCC2)n1` [Example 624, (S)-5-(3-((1-(1H-tetrazol-1-yl)propan-2-yl)oxy)-4-chlorophenyl)-N-(1-ethyl-3-morpholino-1H-pyrazol-4-yl)pyrimidin-2-amine] the value was not below 0.1 µM; for `C[C@@H](Cn1cnnn1)Oc1cc(-c2cnc(Nc3cn([C@H]4CC[C@@H](C(=O)O)CC4)nc3C(F)(F)F)nc2)ccc1Cl` [Example 625, cis-(S)-4-(4-((5-(3-((1-(1H-tetrazol-1-yl)propan-2-yl)oxy)-4-chlorophenyl)pyrimidin-2-yl)amino)-3-(trifluoromethyl)-1H-pyrazol-1-yl)cyclohexane-1-carboxylic acid], not below 0.1 µM.

The term IC50 denotes the midpoint of a concentration-inhibition curve.
